Reference: patent publication US20230302084A1, “METHODS AND COMPOSITIONS FOR TREATING PERIODONTAL DISEASE” (priority 2020, published 2023)

Key:
[1] = system: TIGK cells; experiment: ATP assay (BAR, BAR-EFs); type: cell-based
Experimental: (§1) Telomerase immortalized gingival keratinocytes (TIGKs) were grown on 12-well collagen-coated plates (Becton Dickinson, Bedford, MA) and cultured using DermaLife K Calcium Free Medium (LifeFactors®) supplemented with penicillin/streptomycin (100 U/mL final concentration; St. Louis, MO), insulin (5 μg/mL), recombinant human (rh), L-glutamine (6 mM), apo-transferrin (5 μg/mL), epinephrine (1 μM), rh TGF-α (0.5 ng/mL), extract P™, calcium chloride (0.06 mM) and hydrocortisone hemisuccinate (100 ng/mL). The cells were incubated at 37° C. in the presence of 5% CO2 for 6 days until they reached 95% confluence.
ATP Assay: The metabolic activity of TIGK cells was assessed by measuring total ATP levels using the CellTiter-Glo reagent (Promega, Madison WI), as described by the manufacturer. TIGK cells were seeded at a density of 6×10^4 cells in 1 mL media per well and incubated at 37° C., 5% CO2 for 24 hr in a 12-well flat bottom plate. Cells were then incubated with BAR or 10:90 PLGA-PEO BAR-EFs (1.3 or 3.4 μM) for 24 hr at 37° C. in 5% CO2. Cells were then lysed with 500 μL of 0.1% Triton X-100 for 30 min at 37° C. The lysates were collected and centrifuged at 1,000×g for 10 min at 4° C., and 50 μL of supernatant was mixed with 50 μL of CellTiter-Glo reagent. […] Total luminescence was measured with a Victor 3 luminometer (Perkin-Elmer, Inc). […]

[2] = system: TIGK cells; experiment: LDH assay (BAR, BAR-EFs); type: cell-based
Experimental: as §1
LDH Assay: Cell membrane leakage was measured by assessing the release of lactate dehydrogenase (LDH). Extracellular LDH was quantified using a CytoTox96® non-radioactive cytotoxicity assay (Promega, Madison WI) as described by the manufacturer. TIGK cells were plated at density of 6×10^4 cells in 1 mL media per well in a 12-well flat bottom plate, and incubated at 37° C., 5% CO2 for 24 hr. BAR or 10:90 PLGA-PEO BAR-EFs (1.3 or 3.4 μM) were added to cells in triplicate for 24 hr at 37° C. in 5% CO2. Fifty microliters of supernatant from free BAR and BAR-EF-treated (1.3 and 3.4 μM) cells were added to the LDH substrate and incubated at room temperature for 30 min. […] LDH activity was determined by measuring the optical density of the solution at 490 nm. […]

[3] = system: TIGK cells; experiment: ATP assay (BAR NPs); type: cell-based; settings: 1 ng staurosporine, vs untreated and NP-treated cells
Experimental: Total ATP levels in cell culture were assessed by using the CellTiter-Glo reagent (Promega, Madison WI), as described by the manufacturer. TIGK cells were seeded at a density of 6×10^4 cells in 1 mL media per well and incubated at 37° C., 5% CO2 for 24 hr in a 12-well flat bottom plate. Cells were then incubated with CafA-modified BAR-NPs or unmodified BAR-NPs (1.3 or 3.4 μM) for 24 hr at 37° C. in 5% CO2. Cells were then lysed with 500 μL of 0.1% Triton X-100 for 30 min at 37° C. The lysates were collected and centrifuged at 1,000×g for 10 min at 4° C., and 50 μL of supernatant was mixed with 50 μL of CellTiter-Glo reagent. Samples were incubated at ambient temperature for 10 min in a black 96-well plate in the dark. Total luminescence was measured with a Victor 3 luminometer (Perkin-Elmer, Inc). Cells incubated with 1 ng of staurosporine or with medium-only served as positive and negative controls for cell death, respectively.

[4] = system: TIGK cells; experiment: LDH assay (BAR NPs); type: cell-based; settings: staurosporine, vs control or treated cells
Experimental: Cell membrane leakage was measured by the release of lactate dehydrogenase (LDH). Extracellular LDH was quantified using a CytoTox96® non-radioactive cytotoxicity assay (Promega, Madison WI) as described by the manufacturer. TIGK cells were plated at density of 6×10^4 cells in 1 mL media per well in a 12-well flat bottom plate, and incubated at 37° C., 5% CO2 for 24 hr. CafA-modified BAR NPs or unmodified BAR NPs (1.3 or 3.4 μM) were added to cells in triplicate for 24 hr at 37° C. in 5% CO2. Fifty microliters of supernatant from CafA-modified BAR NP- and unmodified BAR NP-treated (1.3 and 3.4 μM) cells were added to the LDH substrate and incubated at room temperature for 30 min. The reactions were subsequently terminated by adding 50 μL of stop solution. LDH activity was determined by measuring the optical density of the solution at 490 nm. Cells treated with staurosporine or with medium-only served as positive and negative controls for cell death, respectively.

[5] = system: pre-established P. gingivalis-S. gordonii biofilms; experiment: Biofilm disruption assay; type: cell-based, P. gingivalis (ATCC 33277) / S. gordonii DL-1; settings: 3.0 μM, 3 hr on 24 hr biofilms
Experimental: The resulting P. gingivalis S. gordonii biofilms were then treated for the maximum duration observed for free BAR to disrupt existing biofilms (3 hr). Established biofilms were administered BAR-EFs, free BAR or blank EFs at various concentrations in 1 mL PBS, and processed and analyzed as described above. The mean and standard deviation (SD) between samples were determined and the percent disruption of P. gingivalis adherence was calculated with the following formula: GR sample/GR control.

[6] = system: TIGK cells; experiment: MTT assay (BAR, BAR-EFs); type: cell-based; settings: 1.3 or 3.4 μM, 24 hr, relative to medium-only treated cells
Experimental: as §1
MTT Assay: TIGK cells were seeded in 12-well plates at a density of 6×10^4 cells in 1 mL media per well and incubated for 24 hr to allow for 60-70% confluency and sufficient adhesion. Cells were treated with 1.3 or 3.4 μM of BAR or 10:90 PLGA-PEO BAR-EFs. After 24 hr, 100 μL of MTT solution was added to the media of all samples. After 4 hr incubation at 37° C., 550 μL of lysis buffer was added to the media of each well and plates were incubated for overnight. The absorbance of each well was read at 570 nm, and the sample absorbance was normalized to the absorbance of medium-only treated cells. Cells were treated with 10% DMSO media (100 μL DMSO in 900 μL media) as a positive control for cell death.

[7] = system: TIGK cells; experiment: Oxidative DNA damage (AP sites); type: cell-based; settings: 1.3 or 3.4 μM, 24 hr
Experimental: as §1
Oxidative DNA Damage: Free radicals and other reactive species are generated from cells under stress and cause oxidative damage to biomolecules. DNA is the most targeted site of oxidative attack. […] OxiSelect™ Oxidative DNA Damage Quantitation Kit (Cell Biolabs, INC., San Diego, CA, USA) was used to quantify AP sites in cells treated with free BAR or 10:90 PLGA-PEO BAR-EFs (1.3 or 3.4 μM) as described by the manufacturer. […] AP sites were determined in genomic DNA by using a biotinylated aldehyde reactive probe (ARP) that reacts specifically with an aldehyde group of AP sites, followed by colorimetric detection using a streptavidin-enzyme conjugate (450 nm). The quantity of AP sites in DNA samples was determined by comparing the absorbance with standard curve of known amount of AP sites.

[8] = system: P. gingivalis adherence to S. gordonii; settings: 3.0 μM
Experimental: P. gingivalis (ATCC 33277) was grown in Trypticase soy broth (Difco Laboratories Inc., Livonia, MI, USA) supplemented with 0.5% (w/v) yeast extract, 1 μg/mL menadione, and 5 μg/mL hemin. The medium was reduced for 24 hr under anaerobic conditions (10% CO2, 10% H2, and 80% N2) and P. gingivalis was subsequently inoculated and grown anaerobically for 48 hr at 37° C. S. gordonii DL-1 was cultured aerobically without shaking in brain-heart infusion broth (Difco Laboratories Inc.) supplemented with 1% yeast extract for 16 hr at 37° C.
To assess the effectiveness of BAR-incorporated EFs to prevent the interaction of P. gingivalis with S. gordonii, S. gordonii was harvested from culture and labeled with 20 μL of 5 mg/mL hexidium iodide for 15 min at room temperature. Following incubation, cells were centrifuged to remove unbound fluorescent dye. The bacterial concentration was subsequently measured by the OD (600 nm) from twenty-fold diluted cultures of S. gordonii. […]
Plates containing P. gingivalis and S. gordonii were subsequently incubated for 24 hr at 37° C. in anaerobic conditions. […] Images were analyzed with Volocity image analysis software (version 6.3; Perkin Elmer, Waltham, MA, USA) to determine the ratio of green to red fluorescence (GR), representing P. gingivalis and S. gordonii, respectively. Control samples were used to subtract background levels of auto-fluorescence. […]

[9] = system: sheep erythrocytes; settings: 1.3, 3.4 μM, 3 hr, relative to H2O-treated cells
Experimental: Hemolytic Assay: A sample of 250 μL of 1% sheep erythrocytes (Rockland Inc, Pennsylvania, USA) was suspended in sterile PBS. […] Water replaced PBS as a positive control for cell hemolysis. The suspension was incubated at 37° C. for 3 hr then centrifuged at 3,500×g. Hemoglobin released due to cell lysis was analyzed by measuring the absorbance at 541 nm.

[10] = system: P. gingivalis adherence to S. gordonii; settings: cited from earlier work
[11] = target: T1, minor fimbriae (Mfal) of P. gingivalis (Porphyromonas gingivalis, UniProt B2RHG1 50-563); experiment: cell-based or functional assay
T1 sequence (looked up): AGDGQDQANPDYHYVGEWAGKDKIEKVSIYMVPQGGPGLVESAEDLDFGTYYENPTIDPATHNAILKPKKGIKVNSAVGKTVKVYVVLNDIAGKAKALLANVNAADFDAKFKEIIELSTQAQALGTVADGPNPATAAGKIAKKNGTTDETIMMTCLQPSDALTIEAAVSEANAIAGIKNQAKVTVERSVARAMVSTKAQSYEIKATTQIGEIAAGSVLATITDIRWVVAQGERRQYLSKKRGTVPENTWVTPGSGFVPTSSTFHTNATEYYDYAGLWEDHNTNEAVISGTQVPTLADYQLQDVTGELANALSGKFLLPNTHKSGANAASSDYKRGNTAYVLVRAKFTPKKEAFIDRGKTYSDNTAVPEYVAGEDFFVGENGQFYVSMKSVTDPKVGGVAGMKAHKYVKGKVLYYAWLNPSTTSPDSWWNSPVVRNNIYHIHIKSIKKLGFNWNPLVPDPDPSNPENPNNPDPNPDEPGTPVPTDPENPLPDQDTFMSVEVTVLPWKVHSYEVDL

CN[C@@H]1C[C@H]2O[C@@](C)([C@@H]1OC)n1c3ccccc3c3c4c(c5c6ccccc6n2c5c31)C(=O)NC4 [Staurosporine, staurosporine, reference compound]
ATP levels (positive control) ([1]; 1 ng staurosporine, vs medium-only, free BAR and BAR-EF treated cells): significantly lower levels of ATP
LDH released (positive control) ([2]; staurosporine, relative to medium-only, free BAR and BAR-EFs): significantly higher level of LDH
ATP levels (positive control) [3]: significantly lower levels of ATP
LDH activity released (positive control) [4]: significantly higher

H-LEAAPKKVQDLLKKANITVKGAFQLFS-OH [free BAR, NH2-LEA APK KVQ DLL KKA NIT VKG AFQ LFS-COOH]
Biofilm formation disrupted [5]: 66%
TIGK cell viability (MTT) [6]: no loss in viability
ATP levels relative to medium-only treated cells ([1]; 1.3 or 3.4 μM, 24 hr): no decrease in ATP
LDH released relative to medium-only treated cells ([2]; 1.3 or 3.4 μM, 24 hr): no change in levels of LDH
Number of AP sites relative to medium-only treated cells [7]: no change in the number of AP sites
Biofilm formation inhibited [8]: 81%
Hemolytic activity [9]: negligible hemolysis
IC50 ([10]; previously determined, read-out: previously determined IC50 of free BAR): 1300 nM
maximum effective concentration ([10]; used in in vitro and in vivo studies): 3.4 µM

LEAAPKKVQDLLKKANITVKGAFQLFS [BAR (SspB Adherence Region) peptide]
IC50 of biofilm disruption, BAR-incorporated 10:90 PLGA:PEO EFs [11]: 2000 nM
IC50 of inhibition of biofilm formation, BAR-incorporated 10:90 PLGA:PEO EFs [11]: 1300 nM
